Our source for the GI50 and TGI values is PubChem BioAssay (NCI).

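Step 1: Grow cells in 96-well plates. Step 2: Expose to compound for 48 hours at 5 concentrations. Step 3: Interpolate endpoints linearly; if unreached, use highest concentration. GI50 marks 50% less growth. At the TGI there is no net growth.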

Common to all, as to test: growth of human tumour cells (NCI), 48 h
In test [1] the test system is OVCAR-4 ovarian.
Test [2] concerns A549 NSCLC.
Test [3] relates to HCT-15 colon.
Test [4] concerns KM12 colon.
For test [5], the system named is NCI-H226 lung.
Test [6] concerns SN12C renal.
Test [7] concerns SW-620 colon.
Test [8] deals with OVCAR-3 ovarian.
The test system of test [9] is SF-268 CNS.
Test [10] has as its system A498 renal.

With `COc1cc(-c2cc(-c3cc4c([nH]c5ccccc54)c(-c4cc(OC)c(OC)c(OC)c4)n3)cc(-c3ccccc3)n2)cc(OC)c1OC`, the GI50 in test [1] is 5.31 µM; in [2] it was 3.4 µM; in test [3], 3.37 µM; in test [4], 4.09 µM; in test [5], 7.56 µM; in test [6], 4.08 µM. Also, the GI50 is 3.62 µM in test [7], 3.9 µM in [8], 4.96 µM in [9] and 1.64 µM in test [10]. For the same compound, the TGI was 74.2 µM in [1]; 80.9 µM in test [2]; above 100 µM in [3]; above 100 µM in test [4]; above 100 µM in test [5]; above 100 µM in test [6]. Also, the TGI in test [7] was above 100 µM; in [8], 17.3 µM; in [9] it was above 100 µM; in [10] it was 7.96 µM.
For the compound `OCC1OC(c2nc(C3=NCCCN3)cs2)C(O)C1O` (stereo not given), the TGI in test [1] is above 100 µM; in [2], above 100 µM; in test [3] it was above 100 µM; in [4], above 10 µM; in test [5], above 100 µM; in test [6], above 100 µM. For the same compound, the TGI in [7] is above 100 µM; in [8], above 10 µM; in test [9] it was above 100 µM; in test [10] it was above 100 µM.
Regarding `N#CC(C(=O)C(=O)C(C#N)c1ccc(Br)cc1)c1ccc(Br)cc1` (stereo not given), the TGI was 24.9 µM in test [1]; 46.5 µM in test [2]; 26.1 µM in [3]; 22.4 µM in [4]; 34.8 µM in [5]; 28 µM in [6]. The TGI was 31.3 µM in [7], 21.4 µM in test [8], 32.4 µM in [9] and 29.3 µM in [10].
For `Cc1cc(N(CCC#N)CCC#N)ccc1N=Nc1ccc(C(=O)O)cc1`, the TGI in test [1], in [2], in test [3], in test [4], in test [5] and in test [6] was above 100 µM each time. Moreover, the TGI in test [7], in test [8], in test [9] and in [10] was above 100 µM in each case.
In the case of `CCOC(=O)C(Cc1ccc(CCCC(=O)NCCC(=O)Nc2ccc3nc(C)sc3c2)cc1)C(=O)OCC`, the GI50 in test [1] was 38.1 µM; in [2], 59.1 µM; in test [3] it was 31.8 µM; in [4], 33.4 µM; in test [5], 36.1 µM; in test [6], 31.4 µM. The GI50 in test [7] was above 93.2 µM; in [8] it was 54.9 µM; in test [9], above 78 µM; in test [10] it was above 100 µM. Further, the TGI in test [1], in [2], in test [3], in [4], in test [5] and in [6] was above 100 µM throughout. For the same compound, the TGI in test [7], in test [8], in [9] and in test [10] was above 100 µM in each case.
As to `Clc1ccc2[nH]cc(-c3nnnn3-c3ccccc3)c2c1`, the GI50 is above 43.8 µM in test [1]; 20.8 µM in [2]; 12 µM in [3]; 2.99 µM in test [4]; 74 µM in test [5]; 32.8 µM in [6]. Further, the GI50 is 14.9 µM in [7], 6.66 µM in test [8], 53.1 µM in test [9] and 8.39 µM in test [10]. The TGI in test [1] is above 100 µM; in test [2], above 100 µM; in test [3] it was above 100 µM; in test [4], 19 µM; in test [5], above 100 µM; in [6], above 100 µM. Besides, the TGI in [7] was above 100 µM; in test [8] it was above 42.5 µM; in test [9], above 100 µM; in [10], 36.8 µM.
Regarding `O=C(CSc1nc2ccccc2nc1-c1ccccc1)Nc1ccc(F)cc1`, the GI50 was 1.96 µM in test [1]; 49.3 µM in test [2]; 48.7 µM in test [3]; 44.8 µM in test [4]; above 100 µM in test [5]; 36.5 µM in [6]. Also, the GI50 in test [7] is 61 µM; in test [8], 28 µM; in test [9], 41.6 µM; in [10], 41.7 µM. For the same compound, the TGI in test [1] was 15.7 µM; in [2], above 100 µM; in test [3], above 100 µM; in test [4], above 100 µM; in test [5], above 100 µM; in test [6], above 100 µM. The TGI in test [7], in [8], in [9] and in test [10] was above 100 µM in each case.
With `CN1CCOC(c2ccccc2)O1` (stereo not given), the TGI in test [1], in test [2], in test [3], in test [4], in test [5] and in test [6] was above 100 µM each time. The TGI in test [7], in test [8], in test [9] and in test [10] was above 100 µM in each case.
Turning to `COc1ccc(-c2nc3ccc(-c4nc5ccc(N6CCN(c7ccccc7)CC6)cc5[nH]4)cc3[nH]2)cc1OC`, the GI50 is 1.52 µM in test [1]; 2.03 µM in test [2]; 5.13 µM in test [3]; 1.84 µM in test [4]; 14.5 µM in test [5]; 5.98 µM in test [6]. The GI50 in test [7] was 1.15 µM; in test [8], 2.04 µM; in test [9], 2.12 µM; in test [10] it was 2.93 µM. Also, the TGI was 3.04 µM in test [1]; 6.73 µM in [2]; above 100 µM in test [3]; 4.01 µM in [4]; 32.6 µM in [5]; 18.6 µM in test [6]. Besides, the TGI in test [7] was 2.71 µM; in [8] it was 3.64 µM; in [9], 4.68 µM; in test [10], 9.63 µM.
